Experimental data taken from ChEMBL document CHEMBL3600313, “Novel (pyrazolyl)benzenesulfonamides with a nitric oxide-releasing moiety as selective cyclooxygenase-2 inhibitors” (Bioorg Med Chem Lett, 2015).

Key:
[1] = molecular target: T1, Prostaglandin G/H synthase 2 (Homo sapiens, UniProt P35354); assay: Inhibition of recombinant human COX-2 assessed as reduction of prostaglandin-G2 to prostaglandin-H2 and oxidation of 10-acetyl-3,7-dihydroxyphenoxazine to resorufin after 5 mins by fluorescence based assay
T1 sequence (P35354 whole entry): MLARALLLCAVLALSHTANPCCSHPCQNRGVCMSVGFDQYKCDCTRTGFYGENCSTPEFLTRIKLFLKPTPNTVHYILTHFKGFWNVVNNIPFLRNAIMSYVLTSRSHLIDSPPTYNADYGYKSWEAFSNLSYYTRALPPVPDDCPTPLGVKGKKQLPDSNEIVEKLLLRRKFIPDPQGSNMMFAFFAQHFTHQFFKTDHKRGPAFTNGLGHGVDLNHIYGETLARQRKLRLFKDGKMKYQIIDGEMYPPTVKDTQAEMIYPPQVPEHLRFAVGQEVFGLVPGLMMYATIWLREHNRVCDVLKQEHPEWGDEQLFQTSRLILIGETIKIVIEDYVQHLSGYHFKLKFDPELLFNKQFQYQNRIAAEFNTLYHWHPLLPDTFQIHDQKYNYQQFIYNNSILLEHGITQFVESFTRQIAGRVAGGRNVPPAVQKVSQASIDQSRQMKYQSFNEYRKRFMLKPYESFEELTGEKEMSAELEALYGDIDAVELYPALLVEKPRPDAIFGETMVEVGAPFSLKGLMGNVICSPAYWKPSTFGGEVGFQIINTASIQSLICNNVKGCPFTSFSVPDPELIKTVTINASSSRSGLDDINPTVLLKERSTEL

[2] = Selectivity index, ratio of IC50 for ovine COX-1 to IC50 for recombinant human COX-2
[3] = Nitric oxide release in phosphate-buffered-saline containing human plasma at 50 uM after 90 mins by fluorescence assay in absence of HgCl2
[4] = Nitric oxide release in phosphate-buffered-saline containing L-cysteine using 2,3-diaminonaphthlene at 50 uM after 90 mins by fluorescence assay
[5] = molecular target: T2, Prostaglandin G/H synthase 1 (Ovis aries, UniProt P05979); assay: Inhibition of ovine COX-1 assessed as reduction of prostaglandin-G2 to prostaglandin-H2 and oxidation of 10-acetyl-3,7-dihydroxyphenoxazine to resorufin after 5 mins by fluorescence based assay
T2 sequence (P05979 whole entry): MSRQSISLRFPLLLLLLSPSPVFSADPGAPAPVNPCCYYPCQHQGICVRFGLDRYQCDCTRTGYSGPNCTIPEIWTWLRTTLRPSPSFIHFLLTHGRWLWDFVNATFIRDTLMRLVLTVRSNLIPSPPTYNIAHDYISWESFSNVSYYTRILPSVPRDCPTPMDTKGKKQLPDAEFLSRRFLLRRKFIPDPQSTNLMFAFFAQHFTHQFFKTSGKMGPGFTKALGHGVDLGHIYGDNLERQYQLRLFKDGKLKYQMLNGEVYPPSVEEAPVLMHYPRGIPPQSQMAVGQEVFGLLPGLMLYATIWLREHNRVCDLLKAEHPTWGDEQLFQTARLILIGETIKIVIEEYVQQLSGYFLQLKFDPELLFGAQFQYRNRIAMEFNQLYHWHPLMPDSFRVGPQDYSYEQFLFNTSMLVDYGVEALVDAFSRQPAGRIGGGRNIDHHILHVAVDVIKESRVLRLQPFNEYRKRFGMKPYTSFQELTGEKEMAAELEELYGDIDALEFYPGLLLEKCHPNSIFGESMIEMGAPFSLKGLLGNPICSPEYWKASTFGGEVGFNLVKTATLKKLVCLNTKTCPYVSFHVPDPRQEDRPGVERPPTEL

[6] = test system: Plasma; assay: Nitric oxide release in human plasma using 2,3-diaminonaphthlene at 50 uM after 90 mins by fluorescence assay; assay type: ADME, cell-free; settings: 1.5 h
[7] = Nitric oxide release in phosphate-buffered-saline containing human plasma at 50 uM after 90 mins by fluorescence assay in presence of HgCl2
[8] = Chemical stability of the compound in aqueous solution after 9 days by HPLC analysis; assay type: physicochemical; settings: buffer, 216 h
[9] = Nitric oxide release in phosphate-buffered-saline containing K3[Fe(CN)6] using 2,3-diaminonaphthlene at 50 uM after 90 mins by fluorescence assay
[10] = Nitric oxide release in phosphate-buffered-saline containing K3[Fe(CN)6] using 2,3-diaminonaphthlene at 50 uM after 90 mins by Griess assay
[11] = Nitric oxide release in phosphate-buffered-saline using 2,3-diaminonaphthlene at 50 uM after 90 mins by fluorescence assay
[12] = Nitric oxide release in phosphate-buffered-saline using 2,3-diaminonaphthlene at 50 uM after 90 mins by Griess assay
[13] = test system: Serum; assay: Nitric oxide release in rat serum using 2,3-diaminonaphthlene at 50 uM after 90 mins by Griess assay; assay type: ADME, cell-free; settings: 1.5 h

SMILES	IC50 [1]	Ratio IC50 [2]	IC50 [5]	Activity [6]	Stability [8]	Activity [13]	Activity [3]	Activity [4]	Activity [7]	Activity [9]	Activity [10]	Activity [11]	Activity [12]
Cc1ccc(-c2c(Cl)c(CCl)nn2-c2ccc(S(N)(=O)=O)cc2)cc1	220 nM	> 454	> 100 µM										
Cc1ccc(-c2cc(CO)nn2-c2ccc(S(N)(=O)=O)cc2)cc1	1270 nM	> 78.7	> 100 µM		Stable								
O=S(=O)(NO)c1ccccc1				0.3%		3.2%		0.3%		48.3%	58.4%	33.5%	59.7%

Now from value to compound, other results behind:

IC50 [1]	Ratio IC50 [2]	IC50 [5]	Activity [6]	Stability [8]	Activity [13]	SMILES	Activity [3]	Activity [4]	Activity [7]	Activity [9]	Activity [10]	Activity [11]	Activity [12]
280 nM	218	61 µM	0.5%			Cc1ccc(-c2c(Cl)c(CO[N+](=O)[O-])nn2-c2ccc(S(N)(=O)=O)cc2)cc1	0%	0.8%	3.5%				
890 nM	> 112	> 100 µM	0.3%	Stable		Cc1ccc(-c2cc(CO[N+](=O)[O-])nn2-c2ccc(S(N)(=O)=O)cc2)cc1	0%	1.2%	3.5%	0.6%			
45000 nM	1.4	65 µM	1.4%			CC(=O)Oc1ccccc1C(=O)OCCCCO[N+](=O)[O-]		0.8%		0.2%			
970 nM	> 103	> 100 µM				Cc1ccc(-c2cc(CCl)nn2-c2ccc(S(N)(=O)=O)cc2)cc1							
